One assay concerns H460 cells. The assay can be described thus: 3392 and bleomycin combination, CCK-8, SynergyFinder. It is filed as cell-based, Human. Here is the method:
(§1) Cell metabolism/viability was assessed using a mitochondrial metabolism assay (CCK-8) kit (Cell Counting Kit-8, Cat: CK04, Dojindo Laboratories, Rockville, MD, USA) as previously described. Briefly, cells were seeded at a density of 3 × 10^3 cells per well in 96-well plates and allowed to adhere and stretch for 18–24 h prior to treatment. Cells were pre-treated with Ku-DBi for 24 h before bleomycin treatments. Subsequently, cells were incubated for an additional 48 h at 37 °C after which CCK-8 assay was performed. The absorbance of the formed formazan product in each well was measured at 450 nm and compared to vehicle-treated controls to determine percent cell viability. The results represent the average and SEM of triplicate determinations.

For assay [1], the target named is T1, Ku70–Ku80 (Homo sapiens, UniProt P12956+P13010).
T1 construct: made in house; host or cells: baculovirus-infected Sf9 cells
The assay can be described thus: Microscale thermophoresis (MST). It is filed as binding. The settings on record: labeled Ku 5 nM, 5% DMSO, single-site fit. Here is the method: Ku heterodimer was labeled using the Monolith NT™ Protein Labeling Kit RED-NHS (2nd generation amine reactive, NanoTemper Technologies GmbH, MO-L011, München, Germany), following the manufacturer’s protocol. Ku-DBi 3392 powder was resuspended in 100% DMSO, and the concentration was adjusted to 50 mM after UV absorbance measurement (absorbance at 417 nm with an extension coefficient equal to 15.2 mM^−1 cm^−1). The ligand stock solution was sonicated in an ultrasonic bath before preparations of the dilution series. The MST and Differential Scanning Fluorometry (DSF) assays contain 5% DMSO to fit the DMSO concentration at the highest ligand concentration (200 µM). The labeled protein (5 nM) was incubated with ligand 3392 ranging from 98 nM to 200 µM in a 12-point 1:1 dilution series. Protein–ligand solutions were incubated for 30 min at room temperature before MST measurements, which were performed in triplicate. Proteins were transferred to capillaries (Monolith NT. Automated Premium Capillary Chips), and binding was analyzed with a Monolith NT. Automated pico-RED device using MO. Control Software with nano-red excitation, LED light adjusted to 20% excitation power, and infrared laser (MST power) set to medium. The dissociation constants (KD) were determined with MO. […]
A general note: In MST a laser heats a spot of the sample, and binding alters the fluorescence response.

A further assay concerns the target T2, Ku 70/80 (Homo sapiens, UniProt P12956+P13010).
T2 construct: made in house; host or cells: baculovirus-infected Sf9 cells
Kind of assay: EMSA Ku–DNA binding inhibition. As to conditions: 32P-labeled 30-bp duplex DNA, purified Ku 70/80, mean and SD of triplicate. Here is the method:
(§2) The inhibitory activity of Ku-DBis on Ku-DNA binding was evaluated in vitro using Electrophoretic mobility shift assays (EMSA) with a [^32P]-labeled 30-bp duplex DNA and purified Ku 70/80. Kinase assays were performed to measure the DNA-dependent transfer of [^32P] from γ-[^32P] ATP to a synthetic p53-based peptide substrate, both as previously described. Both EMSA and DNA-PK inhibitor titration assays were performed in triplicate. Data were fit to standard binding curves using GraphPad Prism to determine IC50 values.
Background: Mobility shift assays separate free from complexed probe on a gel.

Another assay concerns Ku wild-type MEFs. The assay can be described thus: Bleomycin sensitization, CCK-8. It is filed as cell-based. The settings on record: 20 μM 3392 for 24 h, then bleomycin 48 h. Here is the method: (§3) page 20: Supplementary Figure S4. Ku-DBi 3392 sensitivity to bleomycin in wild-type (WT) and Ku 80-null MEFs cells. MEF cells were pre-treated with vehicle or 20 μM 3392 for 24 h and then increasing concentrations of bleomycin for 48 h after which cell viability was determined by CCK-8. Data are presented as the mean and SEM of triplicate determinations. (1 picture or pasted object on this page, not shown here)

Another assay has as its system Ku80-null MEF. Kind of assay: Bleomycin sensitization, CCK-8. It is filed as cell-based. The settings on record: 20 μM 3392 for 24 h, then bleomycin 48 h. Here is the method:
as §3

Another assay has as its target T3, DNA-PK (Homo sapiens, UniProt P12956+P13010).
T3 construct: made in house; Ku 70/80 from baculovirus-infected Sf9 cells
Kind of assay: DNA-PK kinase assay (phosphate transfer to p53 peptide). It is filed as biochemical. Here is the method:
as §2

Another assay has as its system A549 cells. The assay can be described thus: γH2AX single-agent DNA damage (Western blot, immunofluorescence). It is filed as cell-based, Human. The settings on record: Supplemental Figure S6. An excerpt:
Supplementary Figure S6. GL-3392 single agent effect on DNA damage in NSCLC.
(A) Western blot analysis from A549 cells nuclear extracts. (B) Densitometric analysis of bands from western blot immunodetection. The original membranes can be found in File S1 (Appendix for Supplementary Figure S6A). (C) γH2AX expression levels dete rmined by Immunofluorescence. IF staining of DAPI nuclear staining (blue) and γH2AX (pS139) (red). Scale bars: 10µm. (D) Quantitation of integrated fluorescence intensity of γH2AX foci represented as the median of 300 nuclei per field. ns: not significant, ****p <0.0001 as calculated by one-way ANOVA with Dunnett’s multiple comparisons test. […]
Background: In western blotting, separated proteins are transferred to a membrane and probed.

Assay [2] has as its system MDA-MB-436. The assay can be described thus: Doxorubicin combination, CCK-8. It is filed as cell-based, Human. As to conditions: BRCA1 mutant MDA-MB-436, 20 µM 3392 pre-treatment 3 h, doxorubicin 72 h. Here is the method: Supplementary Figure S5. Decreased sensitivity to Doxorubicin mediated by Ku-DBi in MDA-436 cells. […] (B) Pre-treatment with vehicle or 20 µM 3392 and media removed after 3 h, prior 72 h doxorubicin treatment after which cell viability was determined by CCK-8. Data are presented as the mean and SEM of triplicate determinations. […]

The test system of assay [3] is MDA-MB-436. The assay can be described thus: Bleomycin-sensitization activity, CCK-8. It is filed as cell-based, Human. The settings on record: BRCA1 mutant MDA-MB-436. Here is the method:
as §1

The next assay deals with MDA-MB-468. The assay can be described thus: Bleomycin-sensitization activity, CCK-8. It is filed as cell-based, Human. The settings on record: BRCA1 wild-type MDA-MB-468. Here is the method: as §1
Assay [4] concerns the target T1, Ku70–Ku80. Kind of assay: nanoDSF thermostability and aggregation. It is filed as binding. The settings on record: Ku 5 µM, 5 µM 3392, up to 25 µM no additional change. Here is the method: The thermostability and aggregation propensity of Ku was assessed using a Prometheus Panta nanoDSF instrument (NanoTemper Technologies GmbH, München, Germany). High-sensitivity capillaries were filled with Ku (10 μL each, experiments in triplicate) at a concentration of 5 µM into the instrument. We titrated against ligand 3392 covering a concentration ranging from 0 to 30 µM with measurements collected at a 1 °C-per-minute scan rate from 25 to 95 °C. Thermal unfolding was assessed by the increase in intrinsic tryptophan fluorescence detected at 350 and 330 nm following excitation at 280 nm. Inflection points in the thermal denaturation curves were identified using the first derivatives of the ratio r = fluorescence (350 nm)/fluorescence (330 nm). We measured dynamic light scattering (DLS) and turbidity throughout the heating ramp using back reflection to characterize protein aggregation. We determined aggregation temperatures using turbidity variations and increases in particle sizes.

The values below come from article PMC11475570, “Impact of Optimized Ku–DNA Binding Inhibitors on the Cellular and In Vivo DNA Damage Response” (Cancers, 2024).

Each structure is given as a SMILES string.

T1 sequence (P12956 whole entry): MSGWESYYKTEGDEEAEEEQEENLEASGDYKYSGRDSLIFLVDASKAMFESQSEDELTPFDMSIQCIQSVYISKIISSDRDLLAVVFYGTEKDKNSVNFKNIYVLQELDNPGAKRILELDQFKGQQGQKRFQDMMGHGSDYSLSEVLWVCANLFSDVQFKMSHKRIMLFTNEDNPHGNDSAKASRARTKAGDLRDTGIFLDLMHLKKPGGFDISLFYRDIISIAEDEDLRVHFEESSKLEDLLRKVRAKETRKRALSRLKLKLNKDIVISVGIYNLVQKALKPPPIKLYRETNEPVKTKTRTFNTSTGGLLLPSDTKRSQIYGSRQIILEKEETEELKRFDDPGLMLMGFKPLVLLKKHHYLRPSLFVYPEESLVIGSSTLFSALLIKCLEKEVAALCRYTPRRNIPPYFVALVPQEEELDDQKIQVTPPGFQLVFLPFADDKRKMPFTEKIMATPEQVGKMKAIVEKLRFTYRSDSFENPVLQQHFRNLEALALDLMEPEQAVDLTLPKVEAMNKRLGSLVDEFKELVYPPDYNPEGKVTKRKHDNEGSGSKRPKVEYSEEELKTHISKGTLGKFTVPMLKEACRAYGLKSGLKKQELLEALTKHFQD
T1 sequence (P13010 whole entry): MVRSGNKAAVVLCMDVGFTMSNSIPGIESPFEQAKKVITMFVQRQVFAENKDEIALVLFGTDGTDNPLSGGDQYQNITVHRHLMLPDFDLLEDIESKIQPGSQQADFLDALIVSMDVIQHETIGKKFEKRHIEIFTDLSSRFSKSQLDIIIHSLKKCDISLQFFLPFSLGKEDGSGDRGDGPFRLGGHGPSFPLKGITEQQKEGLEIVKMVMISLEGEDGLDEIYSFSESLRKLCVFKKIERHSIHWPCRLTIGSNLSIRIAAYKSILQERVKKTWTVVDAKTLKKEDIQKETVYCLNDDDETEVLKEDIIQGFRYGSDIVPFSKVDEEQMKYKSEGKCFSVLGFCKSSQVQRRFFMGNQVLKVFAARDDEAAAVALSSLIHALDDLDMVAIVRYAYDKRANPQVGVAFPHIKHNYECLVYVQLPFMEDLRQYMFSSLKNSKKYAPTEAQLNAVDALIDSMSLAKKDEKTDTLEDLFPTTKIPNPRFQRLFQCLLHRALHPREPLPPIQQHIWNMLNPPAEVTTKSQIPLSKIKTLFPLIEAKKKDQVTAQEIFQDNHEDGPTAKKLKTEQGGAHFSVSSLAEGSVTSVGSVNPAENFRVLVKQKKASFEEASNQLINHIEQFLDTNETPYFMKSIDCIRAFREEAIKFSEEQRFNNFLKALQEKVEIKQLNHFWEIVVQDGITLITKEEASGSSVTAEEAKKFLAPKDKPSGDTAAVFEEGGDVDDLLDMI
T3 sequence (P12956 whole entry): as the sequence (P12956 whole entry) above
T3 sequence (P13010 whole entry): as the sequence (P13010 whole entry) above
T2 sequence (P12956 whole entry): as the sequence (P12956 whole entry) above
T2 sequence (P13010 whole entry): as the sequence (P13010 whole entry) above

Consider `COc1ccc(-c2ccc(/C=C3\C(=O)N(c4cccc(C(=O)O)c4)c4ccccc43)o2)cc1C(=O)Nc1cccc(OC(F)(F)F)c1` [GL-3392], for which the “Type of interaction with bleomycin (HSA and Bliss models)” value in the assay on H460 cells (H460, 3392 combined with bleomycin) is listed as “additive interaction”. Besides, in the assay with H460 cells (Homo sapiens, NCI-H460, H460, bleomycin 0 μM, GL-3392 5 μM, read-out: Response matrix for inhibition), the inhibition at 5 µM was 34%. The inhibition at 10 µM in the assay with H460 cells (Homo sapiens, NCI-H460, H460, bleomycin 0 μM, GL-3392 10 μM, read-out: Response matrix for inhibition) is 78.9%. The inhibition at 15 µM in the assay with H460 cells (Homo sapiens, NCI-H460, H460, bleomycin 0 μM, GL-3392 15 μM, read-out: Response matrix for inhibition) is 79.8%. For the same compound, at Ku70–Ku80 [1], the dissociation constant (Kd) came out at 2100 ± 300 nM. Also, the IC50 at Ku 70/80 stood at 4150 ± 1070 nM; at DNA-PK (DNA-dependent phosphate transfer to synthetic p53 peptide, purified DNA-PK, mean and SD of triplicate), 770 ± 190 nM. Besides, the figures for the “Ku-DBi-dependent change in sensitivity to bleomycin” value with Ku wild-type MEFs and in the assay on Ku80-null MEF were “increases in the sensitivity to bleomycin were only observed in Ku wild-type cells” and “did not increase sensitivity”, respectively. In addition, the “DNA-PK inhibitory activity, fold more active than fluoro-modified counterparts (3618 and 3649)” value at DNA-PK is recorded as ~ 2.5 fold. For the same compound, the “Induction of direct DNA damage, single agent” value with A549 cells is listed as “cannot be attributed to induction of direct DNA damage”. Besides, the “Change in doxorubicin sensitivity” value in the assay on MDA-MB-436 [2] is “decrease in Dox sensitivity”. The “Change in sensitivity to bleomycin” value is recorded as “decrease in sensitivity to bleomycin” in the assay on MDA-MB-436 [3] and “increase in sensitivity” in the assay on MDA-MB-468. Also, the “Thermal stability of Ku” value at Ku70–Ku80 [4] was “induced a shift in thermal stability”.

Usually inhibition stands for how much of the control response was suppressed. Broadly, the Kd is a measure of binding affinity in units of concentration. The term IC50 denotes the concentration that inhibits the measured activity by half.
